According to patent publication US8648105B2, “Diarylthiohydantoin compounds” (The Regents of the University of California, priority 2006, dated 2014):
“Also recorded” adds a separate entry of the source.

What was measured:
[1] = test system: AR-overexpressed LNCaP xenograft tumors; assay: AR-overexpressed LNCaP xenograft model in castrated SCID mice; assay type: in vivo
Procedure: FIG. 7 is a graph of tumor size. AR overexpressing LNCaP cells were injected in the flanks of castrated SCID mice, subcutaneously. When tumors reached about 100 cubic mm, they were randomized into five groups. Each group had nine animals. […]. The tumors were measured three-dimensionally, width, length and depth, using a caliper.
FIG. 8 depicts experimental results of tumor size. At day 18, the animals were imaged via an optical CCD camera, 3 hours after last dose of treatment. A ROI was drawn over the tumor for luciferase activity measurement in photon/second. The right panels is a representation of the ROIs measurements.
Compounds of the invention are used to examine if the diaryihydantoin derivatives have in vivo effects on hormone refractory prostate cancer. First we examine this compound on xenograft tumors established from AR-overexpressed LNCaP cells. Engineered cells in Matrigel (Collaborative Biomedical) are injected subcutaneously into the flanks of the castrated male SCID mice. Tumor size is measured weekly in three dimensions using calipers. After xenograft tumors established (tumor size at least 40 mm^3), mice with tumors are randomized and treated with different doses of compounds orally once daily. The inhibitory effect on growth of AR-overexpressed LNCaP xenograft model is studied as follows. Mice with established LN-AR xenograft tumors are randomized and treated with indicated compounds orally once daily. Tumor size are measured by caliber.
All animal experiments were performed in compliance with the guidelines of the Animal Research Committee of the University of California at Los Angeles. Animals were bought from Taconic and maintained in a laminar flow tower in a defined flora colony. LNCaP-AR and LNCaP-vector cells were maintained in RPMI medium supplemented with 10% FBS. 10^6 cells in 100 μl of 1:1 Matrigel to RPMI medium were injected subcutaneously into the flanks of intact or castrated male SCID mice. Tumor size was measured weekly in three dimensions (length×width×depth) using calipers. Mice were randomized to treatment groups when tumor size reached approximately 100 mm^3. Drugs were given orally every day at 10 mg/kg and 50 mg/kg. To obtain pharmacodynamic readout, the animals were imaged via an optical CCD camera, 3 hours after last dose of the treatment. A ROI is drawn over the tumor for luciferase activity measurement in photon/second. The right panels were a representation of the ROIs measurements. […]

[2] = test system: LNCaP hormone sensitive xenograft; assay: LNCaP hormone sensitive xenograft model
Procedure: Each set included 6 mice. The mice were treated with 10 mg/kg per day.

LIAR cell line = assay: Luciferase activity of the LIAR cell line (FIG. 25); assay type: cell-based; settings: 125 nmol to 1000 nmol
Description: FIG. 25 is a graph of luciferase activity of the LIAR cell line dosed with various compounds administered at concentrations ranging from 125 nmol to 1000 nmol.
The inventors have determined that what might appear to be a small change in the structure of hydantoin compounds may result in a large change in that compound's performance in treating prostate cancer.

[3] = biological target: T1, androgen receptor (AR) and RNA polymerase II (Pol II) (Homo sapiens, UniProt P10275, T878A); settings: 10 uM, 6 hours, LNCaP
T1 sequence (P10275 1-920 T878A): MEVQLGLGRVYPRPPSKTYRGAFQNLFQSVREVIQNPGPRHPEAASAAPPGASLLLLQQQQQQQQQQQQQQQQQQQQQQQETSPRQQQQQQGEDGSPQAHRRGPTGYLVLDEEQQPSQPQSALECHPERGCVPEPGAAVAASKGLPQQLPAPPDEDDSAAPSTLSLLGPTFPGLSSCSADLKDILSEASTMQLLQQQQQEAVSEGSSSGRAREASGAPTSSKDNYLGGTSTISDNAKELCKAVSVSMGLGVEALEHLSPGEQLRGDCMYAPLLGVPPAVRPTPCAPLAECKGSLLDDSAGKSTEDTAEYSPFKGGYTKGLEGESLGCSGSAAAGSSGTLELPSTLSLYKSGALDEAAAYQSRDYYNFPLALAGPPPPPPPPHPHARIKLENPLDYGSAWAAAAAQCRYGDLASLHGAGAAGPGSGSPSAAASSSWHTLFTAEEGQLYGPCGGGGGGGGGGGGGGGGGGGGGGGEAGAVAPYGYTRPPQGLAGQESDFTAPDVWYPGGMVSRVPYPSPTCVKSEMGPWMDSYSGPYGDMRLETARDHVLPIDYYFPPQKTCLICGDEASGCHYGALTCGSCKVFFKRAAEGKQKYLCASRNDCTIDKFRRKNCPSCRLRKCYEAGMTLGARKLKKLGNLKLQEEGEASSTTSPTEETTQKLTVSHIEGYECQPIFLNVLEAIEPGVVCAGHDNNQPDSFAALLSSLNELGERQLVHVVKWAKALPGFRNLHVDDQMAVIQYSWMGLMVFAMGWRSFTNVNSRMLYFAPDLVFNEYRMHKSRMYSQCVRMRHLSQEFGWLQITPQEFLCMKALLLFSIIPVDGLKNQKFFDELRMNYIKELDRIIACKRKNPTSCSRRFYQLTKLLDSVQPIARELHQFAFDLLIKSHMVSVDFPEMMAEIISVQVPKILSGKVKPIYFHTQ
Procedure: LNCaP (ATCC) cells were plated in full serum. On the day of the experiment, the plate was washed once with 1×PBS and 5% CSS was added for 3 days. […] Each of these compounds was added for 6 hours. In a fourth set of experiments, a control, no additional compound was added (−). 6 hours timepoint was run at 28 cycles.

tumor = assay: Dose regimens of NC53 on tumor volume and luciferase photon emission (FIGS. 17, 18); assay type: in vivo; settings: for tumor size: FIG. 17
Description: FIG. 17 illustrates that under treatment with vehicle solution, tumors continued to increase in size.

Structure (SMILES): CNC(=O)c1ccc(N2C(=S)N(c3ccc(C#N)c(C(F)(F)F)c3)C(=O)C23CCC3)cc1F [NC53, N-methyl-4-[7-(4-cyano-3-trifluoromethylphenyl)-8-oxo-6-thioxo-5,7-diaza-spiro[3.4]oct-5-yl]-2-fluorobenzamide]
- photon emission associated with luciferase activity ([1]; FIG. 8, day 18, relative to vehicle): photon emission decreased
- tumor growth / tumor volume ([1]; oral once daily, FIG. 7: 10 or 50 mg/kg, 18 days): effective to prevent tumor growth and even to cause tumor shrinkage, and was distinctly more effective than bicalutamide; also recorded: tumors decreased in size
- rate of tumor growth (tumor volume) ([2]; 10 mg/kg per day, FIG. 6): slower than mice treated with vehicle solution
- PSA levels ([2]; FIG. 16, relative to vehicle solution): PSA levels decreased
- luciferase activity (comparison) (LIAR cell line): less than the luciferase activity upon exposure to NC98
- AR and Pol II recruitment to PSA enhancer and PSA promoter [3]: prevented androgen receptor (AR) recruitment and RNA polymerase II (Pol II) recruitment to PSA enhancer and to PSA promoter
- tumor size (tumor; 1 mg per kg body weight per day): the rate of tumor increase decreased, and the size of the tumor appeared to be stabilizing after about 17 days
- tumor size (tumor; 10 mg per kg body weight per day): tumor size decreased with time
- photon emission associated with luciferase activity (tumor; 10 mg per kg body weight per day, day 17 vs day 0, FIG. 18): photon emission associated with luciferase activity decreased
